Source: ChEMBL document CHEMBL1649260, “Case of fatal Blastoschizomyces capitatus infection occurring in a patient receiving empiric micafungin therapy” (2009)
Converted amounts (≈) assume the structure as drawn. Numbered stars: 1 amine (or outer) side, 2 acyl side, 3 side chain; on linkers, the order of the positions; unused ones are H or OH. Bridge positions count the residues as written; N and C are the ends. Square brackets hold non-standard residues; d marks the D form. Peptide text beside a SMILES is read from it. * marks the point of attachment. hTyr(3S-OH,4S-OH,3'-OSO3H) = N[C@H](C(=O)O)[C@H](O)[C@@H](O)c1ccc(O)c(OS(=O)(=O)O)c1; pTerphenylCO(4''-OnC5H11) = CCCCCOc1ccc(-c2ccc(-c3ccc(C(=O)*)cc3)cc2)cc1; Orn(4R-OH,5R-OH) = O=C([C@H](C[C@@H](O)[C@@H](O)N[*:3])N[*:1])[*:2]; hTyr(3S-OH,4S-OH) = N[C@H](C(=O)O)[C@H](O)[C@@H](O)c1ccc(O)cc1; Pro(3S-OH,4S-Me) = C[C@H]1CN[C@H](C(=O)O)[C@H]1O; X1 = CCCCCOc1ccc(-c2cc(-c3ccc(C(=O)*)cc3)no2)cc1; Gln(3R-OH) = NC(=O)C[C@@H](O)[C@H](N)C(=O)O; Hyp = O=C(O)[C@@H]1C[C@@H](O)CN1

System: Magnusiomyces capitatus
Assay: Antimicrobial activity against Blastoschizomyces capitatus by microdilution method
Type: functional

Compound	MIC [µg/mL]
C[C@@H]1[C@H](O)[C@@H](C)/C=C/C=C/C=C/C=C/C=C/C=C/C=C/[C@H](O[C@@H]2O[C@H](C)[C@@H](O)[C@H](N)[C@@H]2O)C[C@@H]2O[C@](O)(C[C@@H](O)C[C@@H](O)[C@H](O)CC[C@@H](O)C[C@@H](O)CC(=O)O[C@H]1C)C[C@H](O)[C@H]2C(=O)O [AMPHOTERICIN B]	0.5 (≈ 0.541 µM)
CCCCCOc1ccc(-c2ccc(-c3ccc(C(=O)N[C@H]4C[C@@H](O)[C@@H](O)NC(=O)[C@@H]5[C@@H](O)[C@@H](C)CN5C(=O)[C@H]([C@@H](C)O)NC(=O)[C@H]([C@H](O)[C@@H](O)c5ccc(O)cc5)NC(=O)[C@@H]5C[C@@H](O)CN5C(=O)[C@H]([C@@H](C)O)NC4=O)cc3)cc2)cc1 [ANIDULAFUNGIN] ({pTerphenylCO(4''-OnC5H11)}-[Orn(4R-OH,5R-OH)]T[Hyp][hTyr(3S-OH,4S-OH)]T[Pro(3S-OH,4S-Me)]; lactam 1-C)	0.5 (≈ 0.438 µM)
CC[C@H](C)C[C@H](C)CCCCCCCCC(=O)N[C@H]1C[C@@H](O)[C@@H](NCCN)NC(=O)[C@@H]2[C@@H](O)CCN2C(=O)[C@H]([C@H](O)CCN)NC(=O)[C@H]([C@H](O)[C@@H](O)c2ccc(O)cc2)NC(=O)[C@@H]2C[C@@H](O)CN2C(=O)[C@H]([C@@H](C)O)NC1=O [CASPOFUNGIN]	8 (≈ 7.32 µM)
OC(Cn1cncn1)(Cn1cncn1)c1ccc(F)cc1F [FLUCONAZOLE]	4 (≈ 13.1 µM)
Nc1nc(=O)[nH]cc1F [FLUCYTOSINE]	≤ 0.06
CCC(C)n1ncn(-c2ccc(N3CCN(c4ccc(OCC5COC(Cn6cncn6)(c6ccc(Cl)cc6Cl)O5)cc4)CC3)cc2)c1=O (centres undefined) [ITRACONAZOLE]	0.06 (≈ 0.085 µM)
CCCCCOc1ccc(-c2cc(-c3ccc(C(=O)N[C@H]4C[C@@H](O)[C@@H](O)NC(=O)[C@@H]5[C@@H](O)[C@@H](C)CN5C(=O)[C@H]([C@H](O)CC(N)=O)NC(=O)[C@H]([C@H](O)[C@@H](O)c5ccc(O)c(OS(=O)(=O)O)c5)NC(=O)[C@@H]5C[C@@H](O)CN5C(=O)[C@H]([C@@H](C)O)NC4=O)cc3)no2)cc1 [MICAFUNGIN] (X1-[Orn(4R-OH,5R-OH)]T[Hyp][hTyr(3S-OH,4S-OH,3'-OSO3H)][Gln(3R-OH)][Pro(3S-OH,4S-Me)]; lactam 1-C)	0.5 (≈ 0.394 µM)
CC[C@@H]([C@H](C)O)n1ncn(-c2ccc(N3CCN(c4ccc(OC[C@@H]5CO[C@@](Cn6cncn6)(c6ccc(F)cc6F)C5)cc4)CC3)cc2)c1=O [POSACONAZOLE]	0.12 (≈ 0.171 µM)
C[C@@H](c1ncncc1F)[C@](O)(Cn1cncn1)c1ccc(F)cc1F [VORICONAZOLE]	0.06 (≈ 0.172 µM)
